The values that follow come from patent publication US6323199A, “Nonsteroidal anti-inflammatory agents” (Schering Aktiengesellschaft, priority 1998, dated 2001).

The assay addresses T1, glucocorticoid receptor (GR) (Rattus norvegicus, UniProt P06536).
T1 construct: cytosol preparations that consist of the thymus homogenates of rats; from tissue; host or cells: rat thymus homogenate, cytosol
T1 sequence (P06536 1-795): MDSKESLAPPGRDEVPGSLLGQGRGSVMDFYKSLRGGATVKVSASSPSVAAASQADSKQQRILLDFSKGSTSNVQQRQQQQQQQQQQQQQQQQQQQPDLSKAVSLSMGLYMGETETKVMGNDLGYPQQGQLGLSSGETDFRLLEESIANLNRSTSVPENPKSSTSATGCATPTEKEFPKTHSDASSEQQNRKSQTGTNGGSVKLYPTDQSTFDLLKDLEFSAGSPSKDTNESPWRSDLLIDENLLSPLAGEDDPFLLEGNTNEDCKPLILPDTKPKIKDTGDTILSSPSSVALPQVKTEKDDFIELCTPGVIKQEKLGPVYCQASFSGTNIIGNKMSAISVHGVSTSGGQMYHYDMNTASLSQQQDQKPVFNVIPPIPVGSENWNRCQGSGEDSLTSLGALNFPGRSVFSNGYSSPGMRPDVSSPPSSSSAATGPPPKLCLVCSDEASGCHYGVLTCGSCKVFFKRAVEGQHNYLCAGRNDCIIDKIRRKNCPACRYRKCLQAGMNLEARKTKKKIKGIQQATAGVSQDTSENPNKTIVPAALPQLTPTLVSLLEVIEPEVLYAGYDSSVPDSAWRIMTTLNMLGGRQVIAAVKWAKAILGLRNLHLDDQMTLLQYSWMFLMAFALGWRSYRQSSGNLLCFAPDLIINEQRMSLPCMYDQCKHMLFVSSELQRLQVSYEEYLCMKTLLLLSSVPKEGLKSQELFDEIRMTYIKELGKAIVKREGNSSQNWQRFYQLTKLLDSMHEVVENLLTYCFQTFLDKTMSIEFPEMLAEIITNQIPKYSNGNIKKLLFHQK
The assay can be described thus: glucocorticoid receptor (GR)-binding test, cytosol of rat thymus homogenates, [3H]-dexamethasone.

Where [1] appears, read: 10 nM [3H]-dexamethasone, rat thymus cytosol, read-out: IC50 (GR-binding test).

Where two headings read alike, the source gives them in different places.

In general, IC50 refers to the point on the concentration scale where inhibition reaches its midpoint.

`CC(C)(CC(O)(C(=O)Nc1ccc2c(c1)COC2=O)C(F)(F)F)c1cc(F)ccc1O` (centres unmarked) [i, 5-[4-(5-Fluoro-2-hydroxyphenyl)-2-hydroxy-4-methyl-2-trifluoromethyl-valeroylamino]-phthalide]: the IC50 is 2.8 nM.
As to `CC(C)(CC(O)(CNc1ccc2c(c1)COC2=O)C(F)(F)F)c1cc(F)ccc1O` (centres unmarked) [ii, 5-[4-(5-fluoro-2-hydroxyphenyl)-2-hydroxy-4-methyl-2-trifluoromethyl-pentylamino]-phthalide], under setting [1], the concentration for half-maximal inhibition (IC50) stood at 2.3 nM.
Still for that read-out and setting: as for `COc1ccc(F)cc1C(C)(C)CC(O)(C(=O)Nc1ccc2c(=O)onc(C)c2c1)C(F)(F)F` (centres unmarked) [iii, 6-[4-(5-fluoro-2-methoxyphenyl)-2-hydroxy-4-methyl-2-trifluoromethyl-valeroylamino]-4-methyl-2,3-benzoxazin-1-one], the figure is 4.6 nM.
Turning to `COc1cc(Br)ccc1C(C)(C)CC(O)(C(=O)Nc1ccc2c(=O)onc(C)c2c1)C(F)(F)F` (centres unmarked) [iv, 6-[4-(4-bromo-2-methoxyphenyl)-2-hydroxy-4-methyl-2-trifluoromethyl-valeroylamino]-4-methyl-2,3-benzoxazin-1-one], under setting [1], the IC50 came to 4.9 nM.
Turning to `Cc1noc(=O)c2ccc(NC(=O)C(O)(CC(C)(C)c3cc(F)ccc3O)C(F)(F)F)cc12` (centres unmarked) [v, 6-[4-(5-fluoro-2-hydroxyphenyl)-2-hydroxy-4-methyl-2-trifluoromethyl-valeroylamino]-4-methyl-2,3-benzoxazin-1-one], the IC50 was 2.6 nM.
